Data from article PMC8445441, “Elucidating the mechanism by which synthetic helper peptides sensitize Pseudomonas aeruginosa to multiple antibiotics” (PLoS Pathogens, 2021).
Positions of bridges follow the written chain, without caps; N, C: chain ends. Non-standard residues stand in square brackets, D forms with d. Residues, ends and D or L forms follow the SMILES beside them. *: point of attachment. X1 = CC[C@H](C)CCCCC(=O)*; Dab = NCC[C@H](N)C(=O)O

Experiments:
P. aeruginosa AUMC-Pa-3 = experiment: microbe, parasite or virus in culture; conditions: strain AUMC-Pa-3
Summary of the method: (§1)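 Growth inhibition was scored by eye after an 18 h, 37 °C incubation of drug-bacteria mixtures in Mueller-Hinton broth. Inoculum suspension held approximately 1 × 10^6 CFU/mL before 1:1 mixing.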

P. aeruginosa AUMC-Pa-4 = experiment: microbe, parasite or virus in culture; conditions: strain AUMC-Pa-4
Summary of the method: as §1

P. aeruginosa AUMC-Pa-5 = experiment: microbe, parasite or virus in culture; conditions: strain AUMC-Pa-5
Summary of the method: as §1

P. aeruginosa AUMC-Pa-6 = experiment: microbe, parasite or virus in culture; conditions: strain AUMC-Pa-6
Summary of the method: as §1

P. aeruginosa PAO1 = experiment: microbe, parasite or virus in culture; conditions: for MICac: the MIC for the antibiotic in the combination: S3 Table, PAO1
Summary of the method: as §1

P. aeruginosa ATCC27853 = experiment: microbe, parasite or virus in culture; parameters: MICa: MIC of the antibiotic / MICac: MIC of the antibiotic in the combination: unit not given beside the values; conditions: strain ATCC27853
Summary of the method: as §1

P. aeruginosa NR-31040 = experiment: microbe, parasite or virus in culture; parameters: MICa: MIC of the antibiotic / MICac: MIC of the antibiotic in the combination: unit not given beside the values; conditions: strain NR-31040
Summary of the method: as §1

P. aeruginosa NR-31041 = experiment: microbe, parasite or virus in culture; parameters: MICa: MIC of the antibiotic / MICac: MIC of the antibiotic in the combination: unit not given beside the values; conditions: strain NR-31041
Summary of the method: as §1

P. aeruginosa PA14 = experiment: microbe, parasite or virus in culture; parameters: MICa: MIC of the antibiotic / MICac: MIC of the antibiotic in the combination: unit not given beside the values; conditions: strain PA14
Summary of the method: as §1

P. aeruginosa PAK = experiment: microbe, parasite or virus in culture; parameters: MICa: MIC of the antibiotic / MICac: MIC of the antibiotic in the combination: unit not given beside the values; conditions: strain PAK
Summary of the method: as §1

P. aeruginosa HM-214 = system: P. aeruginosa HM-214; parameters: MICa: MIC of the antibiotic / MICac: MIC of the antibiotic in the combination: unit not given beside the values; conditions: strain HM-214
Summary of the method: as §1

P. aeruginosa AUMC-Pa-1 = conditions: strain AUMC-Pa-1
Summary of the method: as §1

P. aeruginosa AUMC-Pa-2 = conditions: strain AUMC-Pa-2
Summary of the method: as §1

[1] = system: clinical P. aeruginosa isolates; experiment: microbe, parasite or virus in culture; conditions: antibiotic alone
Summary of the method: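 Broth microdilution per CLSI in MHB, two-fold drug dilutions mixed with an equal volume of bacteria at about 1 × 10^6 CFU/mL. After 18 h at 37 °C, MIC taken as the lowest concentration with no visible growth; run in triplicate.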

[2] = antibiotic + D-11 (MICb/MICbc 128/4)
[3] = antibiotic alone, unit not given
[4] = with D-11 at MICbc 4, unit not given
[5] = antibiotic + D-11 (MICb/MICbc 64/4)

Structure (SMILES): CC[C@H](C)CCCCC(=O)N[C@@H](CCN)C(=O)N[C@H](C(=O)N[C@@H](CCN)C(=O)N[C@H]1CCNC(=O)[C@H]([C@@H](C)O)NC(=O)[C@H](CCN)NC(=O)[C@H](CCN)NC(=O)[C@H](CC(C)C)NC(=O)[C@@H](CC(C)C)NC(=O)[C@H](CCN)NC1=O)[C@@H](C)O [Colistin] (X1-[Dab]T[Dab][Dab][Dab][dL]L[Dab][Dab]T; lactam 4-C (inferred); N-terminus assumed)
- FICI (P. aeruginosa AUMC-Pa-3; [2]): 0.039
- MICa: MIC of the antibiotic (P. aeruginosa AUMC-Pa-3; [3]): 0.25
- MICac: MIC of the antibiotic in the combination (P. aeruginosa AUMC-Pa-3; [4]): 0.002
- FICI (P. aeruginosa AUMC-Pa-4; [2]): 0.531
- MICa: MIC of the antibiotic (P. aeruginosa AUMC-Pa-4; [3]): 8
- MICac: MIC of the antibiotic in the combination (P. aeruginosa AUMC-Pa-4; [4]): 4
- FICI (P. aeruginosa AUMC-Pa-5; [5]): 1.063
- MICa: MIC of the antibiotic (P. aeruginosa AUMC-Pa-5; [3]): 4/4
- MICac: MIC of the antibiotic in the combination (P. aeruginosa AUMC-Pa-5; [4]): 4/4
- FICI (P. aeruginosa AUMC-Pa-6; [5]): 0.563
- MICa: MIC of the antibiotic (P. aeruginosa AUMC-Pa-6; [3]): 4
- MICac: MIC of the antibiotic in the combination (P. aeruginosa AUMC-Pa-6; [4]): 2
- MICa: the MIC of antibiotics (P. aeruginosa PAO1; PAO1, 18 h): 0.25 µM
- MICac: the MIC for the antibiotic in the combination (P. aeruginosa PAO1; with 2 μM D-11): 0.004 µM
- MICac: the MIC for the antibiotic in the combination (P. aeruginosa PAO1; with 4 μM D-11): 0.001 µM
- FICI (P. aeruginosa ATCC27853; antibiotic + D-11 (MICb/MICbc 32/4)): 0.375
- MICa: MIC of the antibiotic (P. aeruginosa ATCC27853; [3]): 0.25
- MICac: MIC of the antibiotic in the combination (P. aeruginosa ATCC27853; [4]): 0.063
- FICI (P. aeruginosa NR-31040; [2]): 0.281
- MICa: MIC of the antibiotic (P. aeruginosa NR-31040; [3]): 1
- MICac: MIC of the antibiotic in the combination (P. aeruginosa NR-31040; [4]): 0.25
- FICI (P. aeruginosa NR-31041; [5]): 0.127
- MICa: MIC of the antibiotic (P. aeruginosa NR-31041; [3]): 0.125
- MICac: MIC of the antibiotic in the combination (P. aeruginosa NR-31041; [4]): 0.008
- FICI (P. aeruginosa PA14; [2]): 0.094
- MICa: MIC of the antibiotic (P. aeruginosa PA14; [3]): 0.25
- MICac: MIC of the antibiotic in the combination (P. aeruginosa PA14; [4]): 0.016
- FICI (P. aeruginosa PAK; [5]): 0.079
- MICa: MIC of the antibiotic (P. aeruginosa PAK; [3]): 0.25
- MICac: MIC of the antibiotic in the combination (P. aeruginosa PAK; [4]): 0.008
- FICI (P. aeruginosa HM-214; [2]): 0.063
- MICa: MIC of the antibiotic (P. aeruginosa HM-214; [3]): 1
- MICac: MIC of the antibiotic in the combination (P. aeruginosa HM-214; [4]): 0.031
- FICI (P. aeruginosa AUMC-Pa-1; [2]): 0.281
- MICa: MIC of the antibiotic (P. aeruginosa AUMC-Pa-1; [3]): 0.5
- MICac: MIC of the antibiotic in the combination (P. aeruginosa AUMC-Pa-1; [4]): 0.125
- FICI (P. aeruginosa AUMC-Pa-2; [5]): 1.063
- MICa: MIC of the antibiotic (P. aeruginosa AUMC-Pa-2; [3]): 0.5/0.5
- MICac: MIC of the antibiotic in the combination (P. aeruginosa AUMC-Pa-2; [4]): 0.5/0.5
- Antibiotic sensibility (MIC) of clinical P. aeruginosa isolate AUMC-Pa-1 ([1]; strain AUMC-Pa-1): 0.5 µM
- Antibiotic sensibility (MIC) of clinical P. aeruginosa isolate AUMC-Pa-2 ([1]; strain AUMC-Pa-2): 0.5 µM
- Antibiotic sensibility (MIC) of clinical P. aeruginosa isolate AUMC-Pa-3 ([1]; strain AUMC-Pa-3): 0.25 µM
- Antibiotic sensibility (MIC) of clinical P. aeruginosa isolate AUMC-Pa-4 ([1]; strain AUMC-Pa-4): 8 µM
- Antibiotic sensibility (MIC) of clinical P. aeruginosa isolate AUMC-Pa-5 ([1]; strain AUMC-Pa-5): 4 µM
- Antibiotic sensibility (MIC) of clinical P. aeruginosa isolate AUMC-Pa-6 ([1]; strain AUMC-Pa-6): 4 µM
- Antibiotic sensibility (MIC) of clinical P. aeruginosa isolate HM-214 ([1]; strain HM-214): 1 µM
- Antibiotic sensibility (MIC) of clinical P. aeruginosa isolate NR-31040 ([1]; strain NR-31040): 1 µM
- Antibiotic sensibility (MIC) of clinical P. aeruginosa isolate NR-31041 ([1]; strain NR-31041): 0.125 µM
